Results published in US9125862B2, “Methods for the treatment of Prader-Willi-like syndrome or non-organic failure to thrive (NOFITT) feeding disorder using an agonist of the oxytocin receptor” (Institut National de la Sante et de la Rechereche Medicale …, priority 2010, dated 2015).

Tested on: wild type newborns
Experiment: Injection of oxytocin in wild type neonates: lethality and survival
Format: in vivo, mouse
Description: Three to 5 hours after delivery, wild type pups or pups issued from a cross between an heterozygote (+/−) male with wild type females were temporally removed (10 min) from their mother, weighted and given a single s.c. (in the ventral region at the level of floating ribs) injection (20 μl) of isotonic saline or 2 μg oxytocin (Phoenix Pharmaceuticals. Inc., Catalog No. 051-01) dissolved in isotonic saline (20 μl). […] Following the same protocol, we injected vasopressin (Phoenix Pharmaceuticals. Inc., Catalog No. 065-07) at different doses. At P2, pups were scarified to be genotyped.
The results obtained with the injection of SSR 126768A OTA let us think that we might restore a normal feeding behaviour in Magel2 KO newborns with an OT injection just after birth. Early neonatal manipulation of OT was reported in the literature without alterations of the postnatal development (Cushing, B. S., et Al., 2003; Yamamoto, Y., et al., 2004; Saito, O., et Al., 2007). Initially, 28 wild type newborns were injected with an isotonic saline (20 μl) and 4 of them died at P1. Another cohort of 28 wild type newborns, […] on hypothalamic nuclei one hour after the injection (Cushing, B. S., et Al., 2003; Yamamoto, Y., et al., 2004). […] At P2, we observed that 95% (35/37) of wild type and 93% (37/40) of Magel2 mutant newborns survived with milk previously detected in their stomach at P1. […]

CC[C@H](C)[C@@H]1NC(=O)[C@H](Cc2ccc(O)cc2)NC(=O)[C@@H](N)CSSC[C@@H](C(=O)N2CCC[C@H]2C(=O)N[C@@H](CC(C)C)C(=O)NCC(N)=O)NC(=O)[C@H](CC(N)=O)NC(=O)[C@H](CCC(N)=O)NC1=O [oxytocin]
level of lethality (s.c. oxytocin 2 μg in 20 μl NaCl 0.9%, wild type pups n=28, saline 4/28): 3/28 | newborns survived at P2 with milk in stomach at P1 (wild type, 2 μg oxytocin s.c. 3 to 5 hours after birth): 95%
